Like-named read-outs stand apart in the source and are kept apart here. Marks after values point to notes of the source that are not given here.
How the values were obtained:
[1] = target: T1, beef intestine adenosine deaminase (ADA) (Bos taurus, UniProt P56658); details: data taken from Balzarini, J. et al (1987c); cited from earlier work
T1 construct: Kinetic properties of beef intestine adenosine deaminase for 2,6-diaminopurine 2′,3′-dideoxynucleoside analogues; purchased Boehringer Mannheim, Mannheim, West Germany; host or cells: beef intestine (tissue-derived enzyme)
T1 sequence (P56658 1-363): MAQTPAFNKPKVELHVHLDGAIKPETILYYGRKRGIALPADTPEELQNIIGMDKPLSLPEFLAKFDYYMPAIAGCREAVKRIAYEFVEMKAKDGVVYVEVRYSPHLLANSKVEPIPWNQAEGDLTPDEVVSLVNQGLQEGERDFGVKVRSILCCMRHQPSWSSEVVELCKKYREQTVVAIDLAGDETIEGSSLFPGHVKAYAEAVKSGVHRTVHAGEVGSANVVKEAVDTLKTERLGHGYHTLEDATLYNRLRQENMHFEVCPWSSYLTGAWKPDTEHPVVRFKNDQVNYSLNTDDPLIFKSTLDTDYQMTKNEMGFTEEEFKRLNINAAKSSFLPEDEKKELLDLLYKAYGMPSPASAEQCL

[2] = target: T1, beef intestine adenosine deaminase (ADA); experiment: Substrate kinetics for deamination by adenosine deaminase; format: biochemical
Description: All four ddDAPR analogues were examined for their susceptibility to deamination by beef intestine adenosine de aminase (ADA).

[3] = tested on: HIV (HTLV-IIIB); experiment: HIV-induced cytopathogenicity in MT4 cells (viable cell count by trypan blue exclusion after 5 days); format: cell-based; details: for anti-HIV activity: HIV-induced cytopathogenicity in MT4 cells, result in words; for EC50: Human immunodeficiency virus 1, IIIB; for HIV-induced cytopathogenicity in MT4 cells S.I.: selectivity index, ratio of 50% cytotoxic dose to 50% antivirally effective dose, 7200 min
Protocol: (§1) For the determination of the cytopathic effect of HIV in human T-lymphocyte MT4 cells, MT4 cells, subcultured one day before the start of the experiment, were adjusted at 5 x 10⁵ cells/ml and infected with HIV (HTLV-IIIB) at 100 CCID₅₀/ml. Then, 100 µl of the infected cell suspension was brought into wells of a microtiter tray containing 100 µl of various dilutions of the test compounds. After 5 days incubation at 37°C, the number of viable cells was recorded microscopically in a hematocytometer by trypan blue exclusion.
(§2) A series of novel 2,6-diaminopurine and guanine 2′,3′-dideoxynucleoside analogues in which the 2′,3′-dideoxyribose moiety is substituted by a 3′-fluoro group, or replaced by arabinose or 2′-deoxyxylose were evaluated for their effect on the transformation of C3H mouse embryo cells by Moloney murine sarcoma virus (MSV) (Table 1) and the cytopathogenicity induced by HIV in human T4 lymphocyte MT4 cells (Table 1, Fig. 2).

[4] = in vitro; format: cell-based; details: human, mt4 cells
Protocol: as §1
Its anti-HIV activity is also higher than that found for its corresponding 2,6-diaminopurine derivative FddDAPR.

[5] = tested on: MT4; experiment: Cytostatic effect against MT4 cells; format: cell-based; details: Homo sapiens, read-out: Inhibitory dose-50 MT4
Protocol: (§3) The cultivation of Raji, Molt/4F, CEM, H9, HUT-78 and MT4 cells has been described in Balzarini, J, et al, Biochem. Biophys. Res. Commun. 136:64-71 (1986b) and Pauwels, R. et al, J. Virol. Methods, 16:171-185 (1987).
(§4) The cytostatic effects of the compounds listed in Table 1 were examined against several human B-lymphoblast Raji, T-lymphoblast Molt/4F and T-lymphocyte CEM, H9 and MT4 cell lines (Table 2). […] In no case is the ID₅₀ of the compounds for tumor cell proliferation lower than 60 µM. FddGuo is slightly more cytostatic than FddDAPR (ID₅₀ : 190 to 228 µM, and 233 to >1000 µM, respectively). XylodDAPR and araDAPR are devoid of any anti-cellular activity, even when tested at a concentration as high as 1000 µM.

[6] = tested on: H9; experiment: Cytostatic effect against H9 cells; format: cell-based; details: Homo sapiens, read-out: Inhibitory dose-50 H9
Protocol: as §3, §4

[7] = tested on: B-lymphoblast Raji; experiment: Cytostatic effect against Raji cells; format: cell-based; details: Homo sapiens, read-out: Inhibitory dose-50 Raji
Protocol: as §3, §4

[8] = tested on: Moloney murine sarcoma virus (MSV); experiment: MSV-induced C3H cell transformation; format: cell-based; details: for EC50: Moloney murine sarcoma virus, C3H; for MSV-induced C3H cell transformation S.I.: selectivity index, ratio of 50% cytotoxic dose to 50% antivirally effective dose
Protocol: For transformation of C3H mouse embryo cells by Molo ney murine sarcoma virus (MSV), confluent monolayers of C3H cells in 1 ml wells of Tissue Culture Cluster plates were infected wiht 150 foci-forming units of MSV during 90 min, whereafter medium was replaced by 1 ml fresh culture medium containing different concentrations of test compound. After 6-7 days incubation at 37°C, transformation of the cell cultures was monitored microscopically.
as §2

[9] = tested on: T-lymphoblast Molt/4F; experiment: Cytostatic effect against Molt/4F cells; format: cell-based; details: Homo sapiens, read-out: Inhibitory dose-50 Molt/4F
Description: The cultivation of Raji, Molt/4F, CEM, H9, HUT-78 and MT4 cells has been described in Balzarini, J, et al, Biochem. Biophys. Res. Commun.
The cytostatic effects of the compounds listed in Table 1 were examined against several human B-lymphoblast Raji, T-lymphoblast Molt/4F and T-lymphocyte CEM, H9 and MT4 cell lines (Table 2).

[10] = tested on: T-lymphocyte CEM; experiment: Cytostatic effect against CEM cells; format: cell-based; details: Homo sapiens, CCRF-CEM, read-out: Inhibitory dose-50 CEM
Protocol: as §3, §4

[11] = in vitro; format: cell-based; details: mouse, c3h cells
[12] = tested on: HIV; experiment: Inhibition of HIV antigen expression in infected H9 or HUT-78 cells (indirect immunofluorescence, laser flow cytofluorography); format: cell-based; details: Human immunodeficiency virus 1, HuT78; H9 and HUT-78 cells; data not shown; read-out: concentration achieving 50% inhibition of HIV-induced antigen expression
Description: The inhibitory effects of the test compounds on HIV antigen expression in infected H9 or HUT-78 cells were determined at day 8 and 14, respectively after infection, by indirect immunofluorescence and laser flow cytofluorography using a polyclonal antibody as probe, as previously described (Pauwels, R. et al, (1987)).
To confirm our anti-HIV data obtained in the MT4 cell model, we also evaluated the 3′-fluorinated ddDAPR derivatives in two other human T4 lymphocyte cell lines (H9 and HUT-78) for their inhibitory effect on viral antigen expression (data not shown). In these experiments, FddDAPR achieves 50% inhibition of HIV-induced antigen expression at a concentration range of 0.05 - 1.0 µM. This concentration range is lower than that required to inhibit HIV-induced cytopathogenicity in MT4 cells.

[13] = tested on: T-lymphocyte CEM; experiment: Cytostatic effect against CEM cells; format: cell-based; details: Homo sapiens, read-out: Inhibitory dose-50 CEM
[14] = tested on: MT4; experiment: Cytostatic effect against MT4 cells; format: cell-based; details: Homo sapiens, read-out: Inhibitory dose-50 MT4; remark: listed apart in the source
[15] = tested on: human B-lymphoblast Raji, T-lymphoblast Molt/4F and T-lymphocyte CEM, H9 and MT4 cell lines; experiment: Cytostatic effects, summary over the human B- and T-cell lines; format: cell-based; details: range over the cell lines, read-out: ID₅₀ for tumor cell proliferation
Protocol: as §3, §4

[16] = MT4, 120 h, MT4 cells, 5 days at 37°C, read-out: HIV-induced cytopathogenicity in MT4 cells ED₅₀
[17] = C3H cells, 6-7 days at 37°C, read-out: MSV-induced C3H cell transformation ED₅₀
[18] = presence of DCF (10 µM preincubation)

Nc1ncnc2c1ncn2[C@@H]1O[C@H](CO)[C@@H](O)[C@H]1O [Ado, adenosine]
Vmax [1]: 287^a µmole/mg proten/min

Nc1nc(N)c2ncn([C@@H]3O[C@H](CO)[C@@H](O)[C@@H]3O)c2n1 [araDAPR, 9-β-D-arabinofuranosyl 2,6-diaminopurine]
Km [2]: 83 µM
Vmax [2]: 5.9 µmole/mg proten/min
anti-HIV activity [3]: devoid of any anti-HIV activity
EC50 [3, 16]: > 125 µM
CC50 at 120 h [4]: > 625 µM
IC50 [5]: > 1000 µM
IC50 [6]: > 1000 µM
IC50 [7]: > 1000 µM
EC50 [8, 17]: > 400 µM
IC50 ([9]; Molt/4F): > 1000 µM
IC50 [10]: > 1000 µM
CC50 [11]: > 400 µM

Nc1nc(N)c2ncn([C@H]3C[C@H](F)[C@@H](CO)O3)c2n1 [FddDAPR, 3′-fluoro-2,6-diaminopurine 2′,3′-dideoxyriboside]
Vmax [2]: 31 µmole/mg proten/min
EC50 [3, 16]: 4.5 µM
EC50 ([3]; MT4, presence of 10 µM DCF (2′-deoxycoformycin), read-out: Effective dose-50 HIV-induced cytopathogenicity in MT4 cells): 39 µM
EC50 ([3]; MT4, without DCF (Table 3), read-out: Effective dose-50 HIV-induced cytopathogenicity in MT4 cells): 4.5 µM
HIV-induced cytopathogenicity in MT4 cells S.I. [3]: 80
EC50 [12]: 0.05 to 1 µM
IC50 [13, 18]: 739 µM
IC50 ([13]; without DCF (Table 4)): 241 µM
CC50 at 120 h [4]: 360 µM
IC50 [5]: 337 µM
IC50 [6]: 377 µM
IC50 [7]: 753 µM
EC50 [8, 17]: 28 µM
EC50 ([8]; presence of 10 µM DCF (2′-deoxycoformycin), read-out: Effective dose-50 MSV-induced C3H cell transformation): 87 µM
EC50 ([8]; without DCF (Table 3), read-out: Effective dose-50 MSV-induced C3H cell transformation): 31 µM
MSV-induced C3H cell transformation S.I. [8]: > 15
IC50 ([9]; Molt/4F): 425 µM
IC50 [9, 18]: 865 µM
IC50 ([9]; without DCF (Table 4)): 353 µM
IC50 [10]: 233 µM
CC50 [11]: > 400 µM
IC50 ([14]; MT4, presence of DCF (10 µM preincubation)): 520 µM
IC50 ([14]; MT4, without DCF (Table 4)): 469 µM

Nc1ncnc2c1ncn2[C@H]1CC[C@@H](CO)O1 [ddAdo, 2′,3′-dideoxyadenosine]
Vmax [1]: 262^a µmole/mg proten/min

Nc1nc2c(ncn2[C@H]2CC[C@@H](CO)O2)c(=O)[nH]1 [ddGuo, 2′,3′-Dideoxyguanosine]
EC50 [3, 16]: 7.6 µM
HIV-induced cytopathogenicity in MT4 cells S.I. [3]: 64
CC50 at 120 h [4]: 486 µM
IC50 [5]: 942 µM
IC50 [6]: 531 µM
IC50 [7]: 903 µM
EC50 [8, 17]: 72 µM
MSV-induced C3H cell transformation S.I. [8]: > 5.5
IC50 ([9]; Molt/4F): 380 µM
IC50 [10]: 142 µM
CC50 [11]: > 400 µM

Nc1nc(N)c2ncn([C@H]3C[C@@H](O)[C@@H](CO)O3)c2n1 [XylodDAPR]
Vmax [2]: 3.7 µmole/mg proten/min
anti-HIV activity [3]: devoid of any anti-HIV activity
EC50 [3, 16]: > 125 µM
CC50 at 120 h [4]: > 625 µM
IC50 [5]: > 1000 µM
IC50 [6]: > 1000 µM
IC50 [7]: > 1000 µM
EC50 [8, 17]: > 400 µM
IC50 ([9]; Molt/4F): > 1000 µM
IC50 [10]: > 1000 µM
CC50 [11]: > 400 µM

Nc1nc2c(ncn2[C@H]2C[C@H](F)[C@@H](CO)O2)c(=O)[nH]1 [FddGuo, 3′-fluoro-2′,3′-dideoxyguanosine]
EC50 [3, 16]: 2.4 µM
HIV-induced cytopathogenicity in MT4 cells S.I. [3]: 96
CC50 at 120 h [4]: 231 µM
IC50 [5]: 197 µM
IC50 [6]: 194 µM
IC50 [7]: 107 µM
IC50 [15]: 190 to 228 µM
EC50 [8, 17]: 12 µM
MSV-induced C3H cell transformation S.I. [8]: > 23
IC50 ([9]; Molt/4F): 228 µM
IC50 [10]: 119 µM
CC50 [11]: > 400 µM
